pIC50: −log10 of the molar value.
Molecular target: Glycogen synthase kinase-3 beta (Homo sapiens, UniProt P49841)
Assay: GSK-3β activity assay
Procedure: In a typical assay, 10 µL of test compound of different concentrations (dissolved in dimethyl sulfoxide [DMSO] and diluted with assay buffer) and 10 µL (20 ng) of enzyme were added to each well followed by 20 µL of assay buffer containing 25 µM substrate and 1 µM ATP. The final DMSO concentration in the reaction mixturewas less than 1%. After incubation at 30 °C for 30 min, the enzymatic reaction was quenched with 40 µL of Kinase-Glo reagent. Luminescence was recorded after 10 min using Infinite F200 PRO multimode reader (Tecan).

Chain of Glycogen synthase kinase-3 beta (P49841 whole entry): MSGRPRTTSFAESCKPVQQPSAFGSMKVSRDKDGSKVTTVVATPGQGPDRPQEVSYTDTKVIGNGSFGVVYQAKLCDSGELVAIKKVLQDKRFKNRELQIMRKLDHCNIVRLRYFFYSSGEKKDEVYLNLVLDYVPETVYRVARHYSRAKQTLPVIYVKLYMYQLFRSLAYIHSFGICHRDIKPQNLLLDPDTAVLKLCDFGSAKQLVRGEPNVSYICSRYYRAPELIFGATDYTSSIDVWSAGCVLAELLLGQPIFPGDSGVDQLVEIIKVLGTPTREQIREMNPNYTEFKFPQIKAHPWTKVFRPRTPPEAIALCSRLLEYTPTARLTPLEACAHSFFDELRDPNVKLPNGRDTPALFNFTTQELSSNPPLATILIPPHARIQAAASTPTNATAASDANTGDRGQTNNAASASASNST

| pIC50 | Compound |
| --- | --- |
| 6.13 | Cn1c(SCc2cn(-c3ccc(Br)cc3)nn2)nc(-c2ccccc2)cc1=O [Pyrimidin-4-one-1,2,3-triazole conjugate, 3a] |
| 6.70 | Cn1c(SCc2cn(-c3ccc(F)cc3)nn2)nc(-c2ccccc2)cc1=O [Pyrimidin-4-one-1,2,3-triazole conjugate, 3b] |
| 6.36 | Cn1c(SCc2cn(-c3ccccc3Br)nn2)nc(-c2ccccc2)cc1=O [Pyrimidin-4-one-1,2,3-triazole conjugate, 3c] |
| 6.52 | Cc1ccccc1-n1cc(CSc2nc(-c3ccccc3)cc(=O)n2C)nn1 [Pyrimidin-4-one-1,2,3-triazole conjugate, 3d] |
| 6.04 | Cn1c(SCc2cn(-c3ccccc3)nn2)nc(-c2ccccc2)cc1=O [Pyrimidin-4-one-1,2,3-triazole conjugate, 3e] |
| 5.87 | Cn1c(SCc2cn(-c3ccc(C(C)(C)C)cc3)nn2)nc(-c2ccccc2)cc1=O [Pyrimidin-4-one-1,2,3-triazole conjugate, 3f] |
| 7.03 | CCc1ccc(-n2cc(CSc3nc(-c4ccccc4)cc(=O)n3C)nn2)cc1 [Pyrimidin-4-one-1,2,3-triazole conjugate, 3g] |
| 5.84 | CCOc1ccc(-n2cc(CSc3nc(-c4ccccc4)cc(=O)n3C)nn2)cc1 [Pyrimidin-4-one-1,2,3-triazole conjugate, 3h] |
| 5.88 | COc1ccccc1-n1cc(CSc2nc(-c3ccccc3)cc(=O)n2C)nn1 [Pyrimidin-4-one-1,2,3-triazole conjugate, 3i] |
| 6.91 | Cn1c(SCc2cn(-c3ccccc3F)nn2)nc(-c2ccccc2)cc1=O [Pyrimidin-4-one-1,2,3-triazole conjugate, 3j] |
| 6.30 | Cn1c(SCc2cn(-c3cccc(Cl)c3)nn2)nc(-c2ccccc2)cc1=O [Pyrimidin-4-one-1,2,3-triazole conjugate, 3k] |
| 5.76 | Cn1c(SCc2cn(-c3cccnc3)nn2)nc(-c2ccccc2)cc1=O [Pyrimidin-4-one-1,2,3-triazole conjugate, 3l] |
| 6.24 | Cn1c(SCc2cn(-c3ccccc3Cl)nn2)nc(-c2ccccc2)cc1=O [Pyrimidin-4-one-1,2,3-triazole conjugate, 3m] |
| 7.09 | Cc1ccc(-n2cc(CSc3nc(-c4ccccc4)cc(=O)n3C)nn2)cc1C [Pyrimidin-4-one-1,2,3-triazole conjugate, 3n] |
| 5.94 | COc1ccc(-n2cc(CSc3nc(-c4ccccc4)cc(=O)n3C)nn2)cc1 [Pyrimidin-4-one-1,2,3-triazole conjugate, 3o] |
| 5.81 | Cn1c(SCc2cn(-c3ccc(Cl)cc3)nn2)nc(-c2ccccc2)cc1=O [Pyrimidin-4-one-1,2,3-triazole conjugate, 3p] |
| 6.23 | Cn1c(SCc2cn(-c3ccc([N+](=O)[O-])cc3)nn2)nc(-c2ccccc2)cc1=O [Pyrimidin-4-one-1,2,3-triazole conjugate, 3q] |
| 6.82 | Cn1c(SCc2cn(-c3cccc([N+](=O)[O-])c3)nn2)nc(-c2ccccc2)cc1=O [Pyrimidin-4-one-1,2,3-triazole conjugate, 3r] |

— BindingDB's records for doi:10.1016/j.bioorg.2016.07.007 (Jamia Hamdard (Hamdard University), 2016)
